Data from US20180161314A1, “Methods for Treating Hyperuricemia and Related Diseases” (Ardea Biosciences, Inc., priority 2010, published 2018).
Read-outs that look alike come from different tables or passages of the source.

Tests used:
[1] = system: hyperuricemic subjects with symptomatic gout; experiment: Pilot study of drug 1 versus placebo and open-label allopurinol in hyperuricemic subjects with symptomatic gout (Examples 1, 2, 20); assay type: in vivo, human
Experimental: Study Objectives • To compare the proportion of subjects whose sUA level is <6.0 mg/dL following 2 weeks of continuous treatment with drug 1 compared to allopurinol and placebo. • To evaluate the percent reduction from baseline in sUA levels following 2 weeks of continuous treatment with drug 1 in combination with allopurinol. • To evaluate the proportion of subjects whose sUA levels are <6.0 mg/dL, <5.0 mg/dL and <4.0 mg/dL at each visit. • To evaluate the absolute and percent reduction from baseline in sUA levels at each visit. • To evaluate the maximum percent reduction in sUA levels from baseline during the entire treatment period. • To evaluate percent change in 24-hour urine uric acid level from baseline to Day 15. • To evaluate the safety and tolerability of drug 1 in subjects with gout. • To evaluate the pharmacokinetics, safety and tolerability of drug 1 in combination with allopurinol in subjects with gout.
A randomized, double-blind, placebo-controlled, dose titration, safety and pharmacodynamics pilot study, in approximately 26 hyperuricemic subjects with symptomatic gout enrolled at 2-3 investigational sites in N America, of: • drug 1 versus placebo and open-label allopurinol (Cohort 1); and • drug 1 in combination with allopurinol versus continued allopurinol alone (Cohort 2)
Subjects are randomized 7 days prior to Day 1 in a double-blind fashion to receive drug 1, drug 1 matching placebo, or open-label allopurinol (Cohort 1) or drug 1 or drug 1 matching placebo in combination with allopurinol (Cohort 2).
To reduce the incidence of gout flares, colchicine 0.6 mg qd is administered to all subjects starting 14 days prior to the Baseline (Day 1) visit. Subjects continue colchicine administration throughout the Treatment Period, discontinuing at the End of Study visit (one week after the last dose of study medication).
Cohort 1 approx 20 subjects randomized in 2:1:1 ratio treatment groups—drug 1:placebo:allopurinol.
Subjects randomized to double-blind treatment: • approx 10 subjects randomized to receive drug 1 200 mg qd (4 drug 1 50 mg capsules/day) for one week, followed by drug 1 400 mg qd (8 drug 1 50 mg capsules/day) for one week. • 5 subjects randomized to receive drug 1 matching placebo qd for 2 weeks (week 1-4 drug 1 matching placebo capsules; week 2-8 drug 1 matching placebo capsules)
Subjects randomized to open-label treatment: • 5 subjects randomized to receive allopurinol 300 mg tablets qd for 2 weeks Cohort 2 approx 6 subjects randomized in 5:1 ratio treatment groups—drug+allopurinol:placebo+allopurinol
For Cohorts 1 and 2, subjects randomized to double-blind treatment take drug 1 or drug 1 matching placebo every 24 hours (±1 h) (morning dose) for a period of 2 weeks. For Cohort 1, subjects randomized to open-label treatment take allopurinol every 24 hours (±1 h) (morning dose) for a period of 2 weeks.
Subjects are requested to then drink approximately 240 mL of water 1-2 hours after dosing.
1. Male or post-menopausal or surgically sterile female. 2. 18-75 years of age. 3. Hyperuricemic, defined as: Cohort 1: Screening serum uric acid is ≥8 mg/dL Cohort 2: Screening serum uric acid is ≥10 mg/dL 4. Subject meets one or more of the 1977 American Rheumatism Association (ARA) criteria for the diagnosis of acute arthritis of primary gout. 5. Subject is willing and able to give informed consent and adhere to visit/protocol schedules.
Blood samples (4.5 mL) are collected and sUA levels determined at Screening (repeated as necessary prior to Day 1), Baseline (Day 1) (1 hour and 8 hours post-dose), Day 8 (trough, 1 hour and 8 hours post-dose), Day 9 (24 hours after Day 8 dose), and Day 14 (trough and 8 hours post-dose), Day 15 and End of Study. An additional sUA level is obtained on Day 7 for Cohort 2 subjects prior to the first dose of allopurinol.
Primary pharmacodynamics parameter is the proportion of subjects with serum uric acid <6.0 mg/dL following 2 weeks of treatment. […]

[2] = system: gout patients with hyperuricemia; assay type: in vivo; settings: for Mean absolute sUA reduction / Mean sUA % change / Mean sUA level: ± SE; for % Response rate for sUA falling below 4 mg/dL / % Response rate for sUA falling below 5 mg/dL / % Response rate for sUA falling below 6 mg/dL: allopurinol 300 mg
Experimental: Study Objectives • To measure the effect of drug 1, alone and in combination with allopurinol, on serum urate concentration. • To evaluate the safety and tolerability of drug 1 in combination with allopurinol.
The study is open-label in gout patients with hyperuricemia, involving 2 panels of ˜10-12 patients per panel. The panels may be enrolled simultaneously.
Panel 1 receives a once-daily dose of allopurinol 300 mg alone for 7 days and for an additional 7 days in combination with a once-daily dose of drug 1 400 mg. Patients then receive 7 days of a once-daily dose of drug 1 400 mg alone. Panel 2 follows the same regimen as panel 1, at doses of allopurinol 300 mg and drug 1 600 mg.
• Day −10 to Day 28: colchicine prophylaxis; or • Day −7 to Day 28: colchicine prophylaxis (for patients not washing out from ULT) • Days 1-7: allopurinol 300 mg qd • Days 8-14: drug 1 400 mg qd+allopurinol 300 mg qd • Days 15-21: drug 1 400 mg qd
• Day −10 to Day 28: colchicine prophylaxis; or • Day −7 to Day 28: colchicine prophylaxis (for patients not washing out from ULT) • Days 1-7: allopurinol 300 mg qd • Days 8-14: drug 1 600 mg qd+allopurinol 300 mg qd • Days 15-21: drug 1 600 mg qd
Gout patients on a urate lowering therapy (ULT), have previously taken a ULT or who have never taken a ULT are eligible to participate. Screening procedures to determine patient eligibility are performed within approximately 14 days of the first dose of study drug (Day 1). Subjects currently on ULT wash-out for at least 10 days before Day 1, and begin colchicine (Colcry® 0.6 mg qd, URL Pharma) as prophylaxis for gout flares at the beginning of the wash-out period. Subjects not on ULT begin colchicine administration at least 7 days prior to Day 1. Patients intolerant of colchicine during the screening period are considered screen failures and not enrolled. Prophylactic administration of colchicine continues for 7 days after the last dose of study medication.
Eligible patients report to the study center early morning on Days −1, 7, 14, and 21 (or the afternoon/evening the day before). Serial blood samples are collected on Days −1, 7, 14, and 21. Study medication is administered to each patient and taken orally every morning with approximately 240 mL of water, at approximately the same time of the morning every day, and approximately 30 minutes after finishing a full breakfast (approximately 650 Kcal and 35% fat); the breakfast is standardized on Days −1 to 21.
Inclusion Criteria • Patient is male or post-menopausal or surgically sterile female. • Patient is 18-80 years of age. • Patient meets one or more criteria for the diagnosis of gout as per the American Rheumatism Association (ARA) Criteria for the Classification of Acute Arthritis of Primary Gout (Appendix B). • Patient sUA≥8 mg/dL at screening. • Patient willing and able to give informed consent and adhere to visit/protocol schedules • No clinically relevant abnormalities in blood pressure (BP), heart rate (HR), body temperature and respiratory rate as per Investigator's judgment.
Subject urate serum levels are recorded, and any safety concerns assessed (by adverse events, clinical laboratory test results, vital signs, 12-lead ECGs, and physical examinations). […] Urate serum concentrations are evaluated for treatment- and/or time-dependent changes relative to baseline (Day −1), and may be expressed both in standard units (mg/dL) and as changes from baseline (e.g., percent change, absolute change, maximal change, and time or day of maximal change).
Drug 1 was tested according to the protocol described in Example 21.
Serum urate levels were measured and absolute and % reduction levels from baseline calculated, for Allopurinol monotherapy, Drug 1 monotherapy and Allopurinol plus Drug 1 combination.

[3] = Drug 1 400 mg panel: allopurinol 300 mg qd days 1-7, combination days 8-14, drug 1 400 mg qd alone days 15-21
[4] = Drug 1 600 mg panel: allopurinol 300 mg qd days 1-7, combination days 8-14, drug 1 600 mg qd alone days 15-21

Oc1ncnc2[nH]ncc12 [Allopurinol, 1H-pyrazolo[3,4-d]pyrimidin-4(2H)-one, reference compound]
Responders Day 14 (those with sUA <6 mg/dL) ([1]; Cohort 1, Day 14, responders/subjects, drug 1 200 mg qd 1 week then 400 mg qd 1 week, allopurinol 300 mg qd 2 weeks): 5/5
Adverse event ([1]; one subject on allopurinol 300 mg qd): hyperaldosteronemia
Mean absolute sUA reduction [2, 3]: -3.1 ± 0.28 mg/dL
Mean sUA % change [2, 3]: −32.2 ± 2.1%
Mean sUA level [2, 3]: 6.5 ± 0.16 mg/dL
% Response rate for sUA falling below 4 mg/dL ([2]; Drug 1 400 mg panel): 0%
% Response rate for sUA falling below 5 mg/dL ([2]; Drug 1 400 mg panel): 0%
% Response rate for sUA falling below 6 mg/dL ([2]; Drug 1 400 mg panel): 10%
Mean absolute sUA reduction [2, 4]: -2.6 ± 0.26 mg/dL
Mean sUA % change [2, 4]: −28.7 ± 2.4%
Mean sUA level [2, 4]: 6.3 ± 0.31 mg/dL
% Response rate for sUA falling below 4 mg/dL ([2]; Drug 1 600 mg panel): 0%
% Response rate for sUA falling below 5 mg/dL ([2]; Drug 1 600 mg panel): 10%
% Response rate for sUA falling below 6 mg/dL ([2]; Drug 1 600 mg panel): 30%
